The target of the assay is T1, human 11beta-HSD1 (Homo sapiens, UniProt P28845).
T1 construct: made in house; host or cells: HEK293 cells (ATCC CRL-1573), transient transfection with a pcDNA3 construct; microsomal fraction used
T1 sequence (P28845 whole entry): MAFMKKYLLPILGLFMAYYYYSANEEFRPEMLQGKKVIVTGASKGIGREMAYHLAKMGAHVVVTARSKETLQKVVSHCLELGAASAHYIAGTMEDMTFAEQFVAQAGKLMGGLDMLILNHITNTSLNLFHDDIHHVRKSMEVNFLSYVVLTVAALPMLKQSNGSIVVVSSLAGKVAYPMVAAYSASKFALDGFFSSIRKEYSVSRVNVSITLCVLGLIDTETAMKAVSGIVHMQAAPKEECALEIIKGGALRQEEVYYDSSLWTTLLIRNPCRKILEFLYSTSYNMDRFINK
Kind of assay: Microsome assay (cortisone to cortisol conversion, ELISA detection). The format is biochemical. Conditions: microsomes from HEK293 cells transiently expressing human 11beta-HSD1; Cortisone 50-200 nM, NADPH 1 mM; 60 min at 37° C.; cortisol by ELISA; read-out: h 11-beta-HSD 1 IC50. As to the method:
The cDNA encoding the human 11beta-HSD1 protein was cloned into the expression vector pcDNA3 (Stratagene). This construct (for details see Alex Odermatt et al.; J Biol Chem., 1999, Vol. 274, Issue 40, 28762-28770) was used to transiently express the protein in HEK293 cells (ATCC number: CRL-1573, described in Graham, F. L., Smiley, J., Russell, W. C., Nairn, R.; (1977)) using lipofectamine. 48 h after transfection cells were washed twice with ice-cold PBS (Phosphate buffered Saline). To 1 volume of cell suspension in PBS 2 volumes of ice-cold lysis buffer (50 mM Tris; pH7.5; 1 mM EDTA; 100 mM NaCl) were added. The cells were lysed by Potter-homogenization (20 strokes). The resulting homogenate was sonicated with a tip sonicator (10% output; 2×30 sec.) and cleared by a low speed centrifugation (10 min×9000 g; 4° C.). The microsomal fraction was collected by a high speed centrifugation (60 min×110,000 g). The resulting pellet was resuspended in storage buffer (20 mM Tris pH 7.5; 1 mM EDTA; 10% Glycerol) and the centrifugation was repeated. The resulting pellet containing the microsomal fraction was again taken up into storage buffer and aliquots were kept frozen in liquid Nitrogen until use.
Microsomes isolated from HEK293 cells transiently expressing human 11beta-HSD1 (for details see above) were incubated in assay buffer (100 mM NaCl; 1 mM EDTA; 1 mM EGTA; 1 mM MgCl; 250 mM Sucrose; 20 mM Tris pH 7.4; Cortisone 50-200 nM and NADPH 1 mM) together with different concentrations of test substances. After 60 min. of incubation at 37° C. the assay was stopped by heating to 80° C. (5 min.) and by addition of the inhibitor Carbenoxolone (1 uM). The amount of Cortisol produced in this assay was determined using a commercially available, ELISA-based Cortisol-detection kit (Distributed by Assay Design, Inc.). Inhibitors were characterized by there IC50 values, e.g. the concentration at which the production of cortisol was 50% reduced.
As to `c1c(C2CC2)nnc2c1[C@H]1CC[C@@H]2C12CC2` [Example 5b, (5′S,8′R)-3′-cyclopropyl-5′,6′,7′,8′-tetrahydrospiro[cyclopropane-1,9′-[1′,2′]diaza[5′,8′]methanocinnoline]], the IC50 is 382 pM.

In the case of `Cc1c(-c2cc3c(nn2)C2CCC3C23CCCC3)cnn1C(C)(C)C` (stereo not drawn) [Example 31, (5′RS,8′SR)-3′-(1-tert-butyl-5-methyl-1H-pyrazol-4-yl)-5′,6′,7′,8′-tetrahydrospiro[cyclopentane-1,9′-[1′,2′]diaza[5′,8′]methanocinnoline]], the IC50 came out at 13 pM.

On to `Cc1c(-c2cc3c(nn2)C2CCC3C23CC3)cnn1C(C)(C)C` (stereo not drawn) [Example 23, (5′RS,8′SR)-3′-(1-tert-butyl-5-methyl-1H-pyrazol-4-yl)-5′,6′,7′,8′-tetrahydrospiro[cyclopropane-1,9′-[1′,2′]diaza[5′,8′]methanocinnoline]], for which the IC50 was found to be 95 pM.

In the case of `c1c(C2CC2)nnc2c1C1CCC2C12CC2` (stereo not drawn) [Example 5, (5′RS,8′SR)-3′-cyclopropyl-5′,6′,7′,8′-tetrahydrospiro[cyclopropane-1,9′-[1′,2′]diaza[5′,8′]methanocinnoline]], the IC50 was 603 pM.

`CC(C)(C)Cc1cc2c(nn1)C1CCC2C12CCCC2` (stereo not drawn) [Example 13, (5′RS,8′SR)-3′-(2,2-dimethylpropyl)-5′,6′,7′,8′-tetrahydrospiro[cyclopentane-1,9′-[1′,2′]diaza[5′,8′]methanocinnoline]]: the IC50 was found to be 1 pM.

Consider `CC1(Cc2cc3c(nn2)[C@H]2CC[C@@H]3C2)CC1` (racemic) [Example 18, (5RS,8SR)-3-[(1-methylcyclopropyl)methyl]-5,6,7,8-tetrahydro-5,8-methanocinnoline], for which the IC50 turned out to be 37 pM.

Take `FC(F)(F)c1ccc(Cl)cc1-c1cc2c(nn1)C1CCC2C12CC2` (stereo not drawn) [Example 24, (5′RS,8′SR)-3′-[5-chloro-2-(trifluoromethyl)phenyl]-5′,6′,7′,8′-tetrahydrospiro[cyclopropane-1,9′-[1′,2′]diaza[5′,8′]methanocinnoline]]: the IC50 was found to be 40 pM.

In the case of `CC(C)(C)c1cc2c(nn1)C1CCC2CC1` [Example 10, 3-Tert-butyl-5,6,7,8-tetrahydro-5,8-ethanocinnoline], the concentration for half-maximal inhibition (IC50) came out at 2 pM.

For the molecule `CC1(c2cc3c(nn2)C2CCC3C23CCCC3)CC1` (stereo not drawn) [Example 11, (5′RS,8′SR)-3′-(1-methylcyclopropyl)-5′,6′,7′,8′-tetrahydrospiro[cyclopentane-1,9′-[1′,2′]diaza[5′,8′]methanocinnoline]], the IC50 amounted to 2 pM.

Turning to `CC(C)(C)c1cc2c(nn1)C1CCC2C12CC2` (single isomer, unassigned) [Example 2a, (5′R,8′S)-3′-tert-butyl-5′,6′,7′,8′-tetrahydrospiro[cyclopropane-1,9′-[1′,2′]diaza[5′,8′]methanocinnoline]], the IC50 is 11 pM.

In the case of `Fc1ccc(-c2cc3c(nn2)C2CCC3C23CC3)c(C(F)(F)F)c1` (stereo not drawn) [Example 19, (5′RS,8′SR)-3′-[4-fluoro-2-(trifluoromethyl)phenyl]-5′,6′,7′,8′-tetrahydrospiro[cyclopropane-1,9′-[1′,2′]diaza[5′,8′]methanocinnoline]], the IC50 stood at 2 pM.

Consider `CC(C)(C)Cc1cc2c(nn1)C1CCC2C12CC2` (stereo not drawn) [Example 1, (5′RS,8′SR)-3′-(2,2-dimethylpropyl)-5′,6′,7′,8′-tetrahydrospiro[cyclopropane-1,9′-[1′,2′]diaza[5′,8′]methanocinnoline]], for which the IC50 is 3 pM.

Regarding `Fc1ccc(-c2cc3c(nn2)C2CCC3C23CCCC3)c(Cl)c1` (stereo not drawn) [Example 28, (5′RS,8′SR)-3′-(2-chloro-4-fluorophenyl)-5′,6′,7′,8′-tetrahydrospiro[cyclopentane-1,9′-[1′,2′]diaza[5′,8′]methanocinnoline]], the IC50 stood at 1 pM.

For the molecule `c1c(C2CC2)nnc2c1C1CCC2C12CC2` (single isomer, unassigned) [Example 5a, (5′R,8′S)-3′-cyclopropyl-5′,6′,7′,8′-tetrahydrospiro[cyclopropane-1,9′-[1′,2′]diaza[5′,8′]methanocinnoline]], the IC50 was found to be 566 pM.

As to `FC(F)(F)c1ccc(Cl)cc1-c1cc2c(nn1)C1CCC2C12CCCC2` (stereo not drawn) [Example 32, (5′RS,8′SR)-3′-[5-chloro-2-(trifluoromethyl)phenyl]-5′,6′,7′,8′-tetrahydrospiro[cyclopentane-1,9′-[1′,2′]diaza[5′,8′]methanocinnoline]], the IC50 was determined as 6 pM.

For `Fc1ccc(-c2cc3c(nn2)C2CCC3CC2)c(C(F)(F)F)c1` [Example 25, 3-[4-fluoro-2-(trifluoromethyl)phenyl]-5,6,7,8-tetrahydro-5,8-ethanocinnoline], the IC50 is 1 pM.

For `CC1(Cc2cc3c(nn2)[C@@]2(C)CC[C@@H]3C2(C)C)CC1` [Example 17, (5R,8S)-8,9,9-trimethyl-3-[(1-methylcyclopropyl)methyl]-5,6,7,8-tetrahydro-5,8-methanocinnoline], the IC50 turned out to be 1 pM.

In the case of `CC(C)(C)Cc1cc2c(nn1)C1CCC2C12CC2` (single isomer, unassigned) [Example 1b, (5′S,8′R)-3′-(2,2-dimethylpropyl)-5′,6′,7′,8′-tetrahydrospiro[cyclopropane-1,9′-[1′,2′]diaza[5′,8′]methanocinnoline]], the 50% inhibitory concentration (IC50) stood at 1 pM.

On to `Fc1ccc(-c2cc3c(nn2)C2CCC3C23CC3)c(Cl)c1` (stereo not drawn) [Example 21, (5′RS,8′SR)-3′-(2-chloro-4-fluorophenyl)-5′,6′,7′,8′-tetrahydrospiro[cyclopropane-1,9′-[1′,2′]diaza[5′,8′]methanocinnoline]], for which the IC50 was found to be 7 pM.

Consider `Cc1c(-c2cc3c(nn2)C2CCC3C23CCCC3)cnn1-c1ccccc1` (stereo not drawn) [Example 30, (5′RS,8′SR)-3′-(5-methyl-1-phenyl-1H-pyrazol-4-yl)-5′,6′,7′,8′-tetrahydrospiro[cyclopentane-1,9′-[1′,2′]diaza[5′,8′]methanocinnoline]], for which the IC50 came to 62 pM.

Turning to `CC(C)(C)c1cc2c(nn1)C1CCC2C12CCCC2` (stereo not drawn) [Example 14, (5′RS,8′SR)-3′-tert-butyl-5′,6′,7′,8′-tetrahydrospiro[cyclopentane-1,9′-[1′,2′]diaza[5′,8′]methanocinnoline]], the IC50 amounted to 2 pM.

Take `Cc1c(C2CC2)nnc2c1C1CCC2C12CC2` (stereo not drawn) [Example 6, (5′RS,8′SR)-3′-cyclopropyl-4′-methyl-5′,6′,7′,8′-tetrahydrospiro[cyclopropane-1,9′-[1′,2′]diaza[5′,8′]methanocinnoline]]: the IC50 stood at 35 pM.

Regarding `CC(C)(C)Cc1cc2c(nn1)[C@H]1CC[C@@H]2C12CC2` [Example 1a, (5′R,8′S)-3′-(2,2-dimethylpropyl)-5′,6′,7′,8′-tetrahydrospiro[cyclopropane-1,9′-[1′,2′]diaza[5′,8′]methanocinnoline]], the IC50 amounted to 4 pM.

As for “(5′RS,8′SR)-3′-(2-methylphenyl)-5′,6′,7′,8′-tetrahydrospiro[cyclopropane-1,9′-[1′,2′]diaza[5′,8′]methanocinnoline] [Example 26]”, the concentration for half-maximal inhibition (IC50) was found to be 5 pM.

In the case of `CC(C)(C)Cc1cc2c(nn1)C1CCC2CC1` [Example 9, 3-(2,2-Dimethylpropyl)-5,6,7,8-tetrahydro-5,8-ethanocinnoline], the IC50 came to 1 pM.

For the molecule `CC1(Cc2cc3c(nn2)C2CCC3C23CC3)CC1` (stereo not drawn) [Example 3, (5′RS,8′SR)-3′-[(1-methylcyclopropyl)methyl]-5′,6′,7′,8′-tetrahydrospiro[cyclopropane-1,9′-[1′,2′]diaza[5′,8′]methanocinnoline]], the IC50 turned out to be 6 pM.

As for `CC1(Cc2cc3c(nn2)[C@H]2CC[C@@H]3C2(C)C)CC1` (racemic) [Example 16, (5RS,8SR)-9,9-dimethyl-3-[(1-methylcyclopropyl)methyl]-5,6,7,8-tetrahydro-5,8-methanocinnoline], the IC50 was 1 pM.

For `FC(F)(F)c1ccccc1-c1cc2c(nn1)C1CCC2C12CC2` (stereo not drawn) [Example 22, (5′RS,8′SR)-3′-[2-(trifluoromethyl)phenyl]-5′,6′,7′,8′-tetrahydrospiro[cyclopropane-1,9′-[1′,2′]diaza[5′,8′]methanocinnoline]], the IC50 came out at 1 pM.

As for `Cc1c(-c2cc3c(nn2)C2CCC3C23CC3)cnn1-c1ccccc1` (stereo not drawn) [Example 20, (5′RS,8′SR)-3′-(5-methyl-1-phenyl-1H-pyrazol-4-yl)-5′,6′,7′,8′-tetrahydrospiro[cyclopropane-1,9′-[1′,2′]diaza[5′,8′]methanocinnoline]], the IC50 was found to be 89 pM.

For the molecule `c1c(C2CC2)nnc2c1C1CCC2C12CCCC2` (stereo not drawn) [Example 15, (5′RS,8′SR)-3′-cyclopropyl-5′,6′,7′,8′-tetrahydrospiro[cyclopentane-1,9′-[1′,2′]diaza[5′,8′]methanocinnoline]], the 50% inhibitory concentration (IC50) came to 13 pM.

Values taken from patent publication US8501940B2, “Tetrahydrocinnoline derivatives” (Hoffmann-La Roche Inc., priority 2008, dated 2013).
